Molecular target: cGMP-specific 3',5'-cyclic phosphodiesterase (Homo sapiens, UniProt O76074)
Test: Binding affinity to recombinant PDE5 catalytic domain (unknown origin) by ITC analysis

| SMILES | Kd [nM] |
| --- | --- |
| CCCOc1ccc(S(=O)(=O)N2CCN(C)CC2)cc1-c1nc(CC)c(F)c(=O)[nH]1 | 1730 |
| CCCOc1ccc(S(=O)(=O)N2CCN(C)CC2)cc1-c1nc(CC)cc(=O)[nH]1 | 1450 |
| CCCOc1ccc(S(=O)(=O)N2CCN(C)CC2)cc1-c1nc(CC)c(Cl)c(=O)[nH]1 | 767 |

Molecules with a lower Kd, results first:

| Kd [nM] | SMILES |
| --- | --- |
| 152 | CCCOc1ccc(S(=O)(=O)N2CCN(C)CC2)cc1-c1nc(CC)c(I)c(=O)[nH]1 |
| 416 | CCCOc1ccc(S(=O)(=O)N2CCN(C)CC2)cc1-c1nc(CC)c(Br)c(=O)[nH]1 |

From ChEMBL document CHEMBL3232929, “Thermodynamic and structural characterization of halogen bonding in protein-ligand interactions: a case study of PDE5 and its inhibitors” (J Med Chem, 2014)
